Measurements: US8211893B2, “Protein kinase C zeta inhibition to treat diabetic retinopathy” (The Penn State Research Foundation, priority 2006, dated 2012)
pIC50: −log10 of the molar value. Entries after “also recorded” stand apart in the source; their conditions may differ. One block for each compound: values may come before it. No end group written: not given here. *: point of attachment. Myristoyl = CCCCCCCCCCCCCC(=O)*

Experiments:
[1] = system: bovine retinal endothelial cells (BREC); test: In vitro permeability assay, VEGF stimulated 70 kDa RITC-dextran flux across BREC monolayer on transwell filters; type: cell-based; conditions: for effect on VEGF stimulated endothelial permeability to 70 kDa RITC-dextran: peptide inhibitor 50 nM
Experimental: Endothelial cells are grown to confluence on transwell filters. After the cells have grown to confluence, an additional 2 to 4 days is necessary to allow formation of a tight barrier. This may vary depending on the cell preparation.
Solute flux is measured by applying 10 micromolar or 20 micromolar RITC-dextran or FITC-BSA to the apical chamber of inserts with a confluent endothelial cell monolayer. The specific experiment may dictate when to perturb the system with, for example, a PKC inhibitor, relative to the time of measuring flux. Remember to consider the time for the perturbation to effect transport rates, for example, time for synthesis and assembly or disassembly of the junctional complex.
One half-hour after addition of fluorescent solute, 50 microliter samples are taken from the basolateral chamber. This is continued on the half-hour for up to four hours. The samples are placed into the 96 well black/clear bottom plate. A sample is taken from the apical chamber at the last time point and also placed in the 96 well plate. […] Fluorescence of each aliquot is quantified on a fluorescence plate reader. We use a FluorImager 595. A blank sample with media only but no fluorescent marker should be used for background subtraction. The rate of diffusive flux (Po) is calculated by the following formula at each time point: Po=[(FA/Δt)VA]/(FLA) where Po=diffusive flux (cm/s); FA=basolateral fluorescence; FL=apical fluorescence; Δt=change in time; A=surface area of the filter (cm^2); VA=volume of the basolateral chamber (cm^3). Note that unless the volume removed from the basolateral chamber is replaced, the volume in the basolateral chamber changes for each time point calculated. The data may be reduced as a rate over the total time course of the experiment if the change remains linear. This is done by plotting the change in fluorescence accumulated in the basolateral chamber corrected for fluorescence in the apical chamber, volume and area versus time and then determining the slope of the straight line or rate of diffusive flux, Po.
The fluorescence obtained from each time point is normalized to the fluorescence in the apical chamber. Next this ratio is corrected for the volume in the bottom chamber and this corrected ratio is plotted verses time to determine the rate of fluorescent molecule accumulation by obtaining the slope. Finally, this slope is converted from minutes to seconds and divided by the area of the filter yielding the diffusive flux in cm/s.
Bovine retinal endothelial cells (BREC) are grown to confluence on transwell filters (Costar) and treated with hydrocortisone (100 nM) to induce barrier properties. PKC zeta peptide inhibitor (50 nM, Calbiochem) is applied to the cells 30 min before addition of fluorescent-labeled tracer and VEGF (50 ng/mL, R&D Systems) is applied to the cells for 15 min before addition of tracer. RITC-labeled 70 kDa dextran (Sigma) is used as a tracer for cell permeability measures and is applied to the apical chamber at 10 micromolar. Samples are drawn from the basolateral chamber over a 4 h time course and the rate of tracer accumulation is used to determine monolayer permeability, Po, in cm/s. FIG. 2 illustrates the results of the use the myristoylated peptide inhibitor of PKC zeta on endothelial permeability to 70 kDa RITC-dextran.
Bovine retinal endothelial cells (BREC) are grown to confluence on transwell filters (Costar) and treated with hydrocortisone (100 nM) to induce barrier properties. PKC zeta peptide inhibitor (PKCζ 1) of SEQ ID No. 1 (Calbiochem) is applied to the cells at concentrations of 6.25 nM, 12.5 nM, 25 nM, and 50 nM, 30 min before addition of fluorescent-labeled tracer and VEGF (50 ng/mL, R&D Systems) is applied to the cells for 15 min before addition of tracer. […]

PKC-zeta [2] = target: T1, PKC-zeta (Homo sapiens, UniProt Q05513); test: In vitro screen for PKC zeta inhibitors, Kinase-Glo Luminescent Kinase assay with CREBtide substrate; type: biochemical; parameters: purchased Biomol International SE-413; conditions: tested at 100 micromolar; relative to compound of formula (I)
T1 sequence (Q05513 1-592): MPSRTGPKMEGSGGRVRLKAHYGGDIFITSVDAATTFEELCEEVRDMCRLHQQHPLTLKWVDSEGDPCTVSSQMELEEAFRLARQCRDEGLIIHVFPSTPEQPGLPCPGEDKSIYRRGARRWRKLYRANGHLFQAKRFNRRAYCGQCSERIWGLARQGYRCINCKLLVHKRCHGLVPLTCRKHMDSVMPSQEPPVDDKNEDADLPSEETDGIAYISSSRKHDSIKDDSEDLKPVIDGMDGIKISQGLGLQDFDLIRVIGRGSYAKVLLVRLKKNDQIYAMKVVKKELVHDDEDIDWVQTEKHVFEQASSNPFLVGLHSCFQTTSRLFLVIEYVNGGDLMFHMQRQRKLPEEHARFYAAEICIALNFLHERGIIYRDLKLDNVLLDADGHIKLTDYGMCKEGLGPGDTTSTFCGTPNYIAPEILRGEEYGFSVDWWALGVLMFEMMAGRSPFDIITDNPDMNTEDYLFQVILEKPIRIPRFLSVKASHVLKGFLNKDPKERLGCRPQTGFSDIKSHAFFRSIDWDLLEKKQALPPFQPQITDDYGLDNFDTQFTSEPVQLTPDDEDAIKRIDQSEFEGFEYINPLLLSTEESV
Experimental: A screen for PKCzeta inhibitors was developed using recombinant human enzyme from Biomol International (SE-413) and CREBtide (Biomol P195) as the substrate. PKCzeta is incubated for 8 min at 30° C. in 50 microliters of buffer containing 5 mM MgCl2, 100 micromolar Na3VO4, 100 micromolar NaP2O7, 1 mM NaF. 100 micromolar PMSF, 50 mM Tris (pH 7.5), 4 micrograms of phosphatidylserine, 50 micromolar ATP, and a substrate peptide, KRREILSRRPSYR. The substrate peptide may be chemically synthesized, recombinantly produced or obtained commercially by the trade name CREBtide. Approximately 9,000 compounds from the DIVERSet collection of the ChemBridge Corporation (San Diego, Calif.) were tested at a final concentration of 100 micromolar, using the Kinase-Glo™ Luminescent Kinase assay (Promega) to measure residual ATP levels after the kinase reaction as described by the manufacturer. Compounds are identified as having inhibitory activity when they reduce PCK zeta activity by at least 50% when tested at a concentration of 100 micromolar.

[3] = system: retinal albumin flux after VEGF treatment; test: In vivo VEGF induced retinal permeability, Evan's blue bound albumin flux; conditions: rat, intraocular injection with VEGF 50 ng, 5 h
Source text: Vascular permeability is quantified in this in vivo model by measuring albumin leakage form blood vessels into the retina. Evans blue is an acid dye of the diazo group that noncovalently binds to albumin in the blood, allowing the breakdown in blood-retinal barrier to be detected when increased vessel leakage is extravasated into the interstitial space.
Rats are used in this example and each animal is weighed and the body weight (BW) recorded for anaesthetic and dye injections. Each animal is anesthetized by intramuscular injection of 1 microliter/g BW a Ketamine/Xylazine mixture equal to […]/6.67 mg Xylazine/kg BW. […]
Both eyes are enucleated and bisected at the equator to harvest the retinas which are optionally dried thoroughly in a Speed-Vac for 5 hours. The weight of the retinas is measured with an analytical balance. […]
The obtained plasma samples are diluted 1:10000 with formamide. […] The absorbance in each well is measured at 620 and 740 nm with a plate reader. The background-subtracted absorbance (A620-A740) is calculated for each sample and the dye concentration is determined using the standard curve. […]
The PKC-zeta I1 is effective at reducing retinal albumin flux in vivo after VEGF treatment. […] Flux to albumin is measured using the albumin binding dye Evan's blue. […] Evan's blue is eluted from the retinas in formamide and read spectrophotometrically. […]

PKC-zeta [4] = target: T1, PKC-zeta; test: IC50 determination for PKC-zeta; type: biochemical; conditions: read-out: half-maximal inhibitory concentration, IC50, for PKC-zeta
Experimental: Methods described in this example are used to determine the half-maximal inhibitory concentration, IC50, of a particular PKC zeta inhibitor. A PKC zeta inhibitor is incubated with […] in vitro by addition of the inhibitor to cultured BREC cells, followed by the addition of a labeled permeability marker, 70 kDa RITC dextran.

BREC cultures = test: Invitrogen Live/Dead assay, calcein AM and ethidium homodimer-1; type: cell-based; conditions: 10 micromolar, 24 h, confluent BREC, alone or with VEGF; listed as PKC-zeta I1
Experimental: Cell viability is measured using the Invitrogen Live/Dead assay according to manufacturer's instructions. Confluent BREC cultures are treated with 10 micromolar PKC-zeta I1 for 24 h. Cell viability is measured with calcein AM incorporation and cell death is measured by ethidium homodimer-1 staining followed by fluorescence quantification on a Molecular Devices Gemini fluorescence plate reader.

Compound: myr-SIYRRGARRWRKL (Myristoyl-SIYRRGARRWRKL)
- effect on VEGF stimulated endothelial permeability to 70 kDa RITC-dextran ([1]; 30 min before tracer, VEGF 50 ng/mL, BREC): reduces and prevents a VEGF stimulated increase in permeability
- effect on VEGF stimulated endothelial permeability to 70 kDa RITC-dextran ([1]; 30 min before tracer, VEGF 50 ng/mL, BREC, listed as myristoylated peptide inhibitor of PKC zeta): reduced or prevented permeability
- dose dependence of effect on VEGF stimulated endothelial permeability ([1]; peptide inhibitor 6.25, 12.5, 25 and 50 nM, VEGF 50 ng/mL, BREC): reduces VEGF stimulated endothelial permeability in a dose dependent manner

Compound: CCOC(=O)c1c(NC(C)=O)sc(/C(C)=N/O)c1-c1ccccc1 [formula (I), ethyl (5E)-2-acetylimino-5-[1-(hydroxyamino)ethylidene]-4-phenyl-thiophene-3-carboxylate]
- reduction of Evan's blue bound albumin flux ([3]; about 10 micromolar final concentration in the eye): 50%
- effect on VEGF induced permeability in vivo ([3]; about 10 micromolar in the eye): blocks VEGF induced permeability in vivo
- pIC50 (PKC-zeta [4]): 5.00
- cell death (ethidium homodimer-1 staining) (BREC cultures): no increase in cell death; also recorded: does not alter cell viability or increase cell death
- cell viability (calcein AM incorporation) (BREC cultures): no loss of cell viability; also recorded: does not alter cell viability
- effect on VEGF induced endothelial permeability in vitro ([1]; PKC-zeta I1 at 10 and 25 micromolar, 30 min before tracer, VEGF 50 ng/mL): completely blocks VEGF induced endothelial permeability; also recorded: effectively blocks VEGF induced permeability in vitro
- effect on baseline endothelial permeability ([1]; PKC-zeta I1 at 10 and 25 micromolar, no VEGF): reduces baseline permeability

Compound: CN(C)CCCn1cc(C2=C(c3c[nH]c4ccccc34)C(=O)NC2=O)c2ccccc21 [bisindoylmaleimide I]
- effect on VEGF stimulated dextran permeability ([1]; bisindoylmaleimide I 5 micromolar, 30 min before tracer, VEGF 50 ng/mL, BREC): partly reduces VEGF stimulated permeability

Compound: CC(C)OC(=O)c1c(-c2ccc(Cl)c(Cl)c2)csc1N [formula (IV)]
- inhibits PKC zeta with x-fold greater efficacy than the compound of formula (I) (PKC-zeta [2]): 1.8 fold

More lines, now with the values ahead:

- inhibits PKC zeta with x-fold greater efficacy than the compound of formula (I) (PKC-zeta [2]): 1.2 fold
Compound: CCOC(=O)c1c(NC(=S)N2CCN(S(C)(=O)=O)CC2)sc(C)c1-c1ccccc1 [formula (III)]

- inhibits PKC zeta with x-fold greater efficacy than the compound of formula (I) (PKC-zeta [2]): 2.6 fold
Compound: CCOC(=O)c1c(NC(C)=O)sc(C)c1-c1ccc(OC)cc1 [formula (V)]
